In US20260053812A1, “METHODS OF TREATING HYPERTENSION WITH A COMBINATION OF AN ALDOSTERONE SYNTHASE INHIBITOR AND A DIURETIC” (Mineralys Therapeutics, Inc., priority 2022, published 2026):
Marks after values point to notes of the source that are not given here.

How the values were obtained:
Type in all cases: in vivo, human
[1] = tested on: subjects with uncontrolled hypertension; experiment: Seated automated office blood pressure (AOBP), randomized placebo-controlled dose-ranging study; settings: for Automated office DBP, mean CFB at Week 8: Part 1
Description: A randomized, double-blinded, placebo-controlled, dose-ranging, multicenter study was conducted to evaluate the effect of orally administered Compound A HBr on blood pressure for the treatment of hypertension in male and female subjects ≥18 years of age.
The study consists of two parts. For enrollment into Part 1 of the study, a subject's value of plasma renin activity (PRA) must be ≤1 ng/mL/h based on morning measurement. If the value of PRA >1 ng/mL/h based on morning measurement, then subjects may be eligible to enter Part 2 of the study.
For Part 1, 163 enrolled subjects ≥18 years of age were randomized into 6 equal treatment groups (1:1:1:1:1:1) to 12.5 mg BID, 25 mg BID, 12.5 mg QD, 50 mg QD, 100 mg QD, or placebo. After a review of interim clinical data, the 2 lowest dose levels (12.5 mg QD and 12.5 mg BID) were stopped for future randomization due to a lack of consistent meaningful reduction of blood pressure, but the patients randomized to that point remained in the study through completion. Thus, after the review of interim clinical data, subjects were randomized into 4 equal treatment groups (1:1:1:1) to 25 mg BID, 50 mg QD, 100 mg QD, or placebo.
For Part 2, 36 enrolled subjects ≥18 years of age were randomized (5:1) to either 100 mg QD Compound A HBr or placebo such that the Compound A HBr treatment group consisted of approximately 30 subjects and the placebo treatment group will consist of approximately 6 subjects.
Subjects orally administered the assigned study drug (Compound A HBr or placebo) according to the assigned dosing regimen for 8 weeks beginning on Study Day 1. All subjects in Part 1 (regardless of dosing group) received BID dosing to preserve the integrity of the blind; active drug is administered as the morning dose for all QD dose groups. Subjects returned to the research facility or were seen by the clinical investigator or approved home health care professional at the end of Study Weeks 1, 2, 3, 4, 5, 6, 7, and 8 (±2 days) for protocol-defined efficacy and safety assessments and procedures, assessment of adverse events (AEs), and confirmation of compliance with study drug usage. Subjects also completed a telephone visit and blood pressure (BP) check at home approximately 3 days post last dose of study drug. Subjects attended up to 14 full clinic visits, including a pre-Screening visit, a Screening/start of Placebo Run-in visit, a second visit during Placebo Run-in, a clinic visit to initiate the ABPM procedure, a Randomization visit, 8 weekly visits during double-blind treatment, and an end-of-study visit scheduled 4 weeks after the last study treatment for final efficacy and safety assessments.
An automated oscillometric sphygmomanometer device was used to measure the subjects' systolic and diastolic blood pressure in office after approximately 5 minutes of rest in the seated position.
The primary endpoint is the change in office-measured (mean of last 2 of 5 unattended measurements using an automated oscillometric sphygmomanometer device after approximately 5 minutes of rest in the seated position) systolic blood pressure (SBP) from baseline to the end of Study Week 8.
Secondary endpoints of this study were: • (a) Change in 24-hour ambulatory blood pressure monitoring (ABPM) parameters (systolic and diastolic) from baseline to the end of Study Week 7. • (b) Change in office-measured SBP from baseline to the end of Study Weeks 1, 2, 3, 4, 5, 6, and 7. • (c) Change in office-measured diastolic blood pressure (DBP) from baseline to the end of Study Weeks 1, 2, 3, 4, 5, 6, 7, and 8. • (d) Proportion of subjects who achieve office-measured BP of ≤130/80 mm Hg by the end of Study Week 8.
For AOBP measurements and any other clinical or laboratory variable for which there are replicate evaluations at the screening and baseline visits, baseline is defined as the mean of the last two non-missing values prior to first administration of the IMP for the double-blinded treatment period.

11-deoxycortisol = experiment: Pharmacodynamics: plasma 11-deoxycortisol; settings: for 11-Deoxycortisol, mean observed: BL
From the text: (§1) PK/PD Analysis Set includes all subjects in the SAF who have sufficient data available for the analysis of pharmacokinetic and pharmacodynamic measurements. In the analyses based on PKPD, subjects will be analyzed according to the actual treatment received.

Serum potassium = experiment: Serum potassium
From the text: Safety endpoints of this study are: • (a) Incidence and severity of all spontaneously reported adverse events (AEs) • (b) Changes in vital signs (standing SBP, standing DBP, body temperature, heart rate, and respiratory rate) • (c) Changes in electrocardiogram parameters (including cardiac intervals: PR, QRS, QT, and corrected QT interval using Fridericia's formula) • (d) Changes in clinical laboratory assessments (hematology, chemistry, coagulation, and urinalysis) • (e) Change in office-measured SBP from Study Week 8 (end-of-treatment period to end of follow up (i.e. end of Study Week 12 for Part 1 and end of Study 10 for Part 2).
The Safety Analysis Set includes all enrolled subjects who received at least one dose of study treatment (MLS-101 or placebo). In analyses performed on the Safety Analysis Set, subjects will be analyzed according to their actual treatment received.

ACTH stimulation testing = settings: majority of Part 2 subjects, 100 mg QD, Baseline and after 8 weeks
Description: 11-deoxycorticosterone levels were unaffected. […] Due to supply chain disruption, the ability to perform ACTH stimulation testing was limited during the first part of the trial. However, the majority of subjects in Part 2 dosed with 100 mg QD, the maximum dose tested, had ACTH-stimulation testing performed at Baseline and after 8 weeks of treatment.

serum aldosterone = experiment: Pharmacodynamics: serum aldosterone; settings: for Aldosterone, mean observed: BL; for Aldosterone levels relative to baseline: Part 1 lorundrostat-treated (range across doses)
From the text: as §1

CC(=O)N[C@H]1CC[C@H](NC(=O)CN2CCN(c3nncc(-c4ccc(C)cc4)n3)CC2)CC1 [Compound A HBr]
Placebo-corrected mean change in AOBP systolic BP, Full-analysis set ([1]; 100 mg, Part-1 and Part-2 (interim) combined, N=58 active): −9.9 mmHg | Automated office DBP, mean CFB at Week 8 ([1]; 12.5 mg BID, BMI <25 kg/m^2): 6.00 mmHg | Automated office DBP, mean CFB at Week 8 ([1]; 50 mg QD, Seated SBP Tertile Low): −2.42 mmHg | Automated office DBP, mean CFB at Week 8 ([1]; 100 mg QD, BMI 25-30 kg/m^2): −6.50 mmHg | Automated office DBP, mean CFB at Week 8 ([1]; 100 mg QD, Seated SBP Tertile Middle): −6.17 mmHg | Automated office DBP, mean CFB at Week 8 ([1]; 100 mg QD, thiazide diuretic use at baseline No): −4.00 mmHg | Blood pressure reduction in individuals receiving a thiazide diuretic as background medication ([1]; observed across dosing cohorts): particularly effective | Blood pressure reduction in individuals with BMI greater than 30 ([1]; observed across dosing cohorts): particularly effective | Subjects with change in BPsys >−15 mmHg ([1]; pooled 50 mg QD, 100 mg QD, 12.5 mg BID, 25 mg BID cohorts (N=103), week 8): 41% | 11-Deoxycortisol, mean observed (11-deoxycortisol; Part 1, 12.5 mg BID): 28.36 ng/dL | 11-Deoxycortisol, mean observed (11-deoxycortisol; Part 1, 12.5 mg QD): 29.07 ng/dL | 11-Deoxycortisol, mean observed (11-deoxycortisol; Part 1, 25 mg BID): 25.87 ng/dL | 11-Deoxycortisol, mean observed (11-deoxycortisol; Part 1, 50 mg QD): 31.14 ng/dL | 11-Deoxycortisol, mean observed (11-deoxycortisol; Part 1, 100 mg QD): 29.97 ng/dL | 11-deoxycortisol (11-deoxycortisol; Part 1 active treatment arms, Week 4 compared with placebo): Transient increases | 11-Deoxycortisol, mean observed (11-deoxycortisol; Part 2, 100 mg QD): 40.79 ng/dL | Increase in potassium levels relative to baseline (Serum potassium; 25 mg BID Part 1, Week 8): 0.341 mmol/L | Serum K+ Mean Change from Baseline to Wk 8 (Serum potassium; 50 mg QD (n = 28)): +0.25 mmol/L | Serum K+ Mean Change from Baseline to Wk 8 (Serum potassium; 100 mg QD (n = 61)): +0.29 mmol/L | Increase in potassium levels relative to baseline (Serum potassium; 100 mg QD Part 2, Week 8): 0.208 mmol/L | Number of individuals with verified or multiple increased serum K+ 5.2-5.5 mMol/L during treatment (Serum potassium; 100 mg QD, Part 1): 5 | Number of individuals with verified or multiple increased serum K+ 5.6-6.0 mMol/L during treatment (Serum potassium; 100 mg QD, Part 1): 3 | Number of individuals with verified or multiple increased serum K+ 6.1-6.5 mMol/L during treatment (Serum potassium; 100 mg QD, Part 1): 0 | Percent of individuals with increased serum K+ 5.2-5.5 mMol/L (Serum potassium; 100 mg QD, Part 1): (18.5%) | Percent of individuals with increased serum K+ 5.6-6.0 mMol/L (Serum potassium; 100 mg QD, Part 1): (10.7%) | Number of individuals with increased serum K+ >6.5 mMol/L during treatment (Serum potassium; 100 mg QD, Part 1, isolated incident not verified by repeat measurement): 1* | Number of individuals with verified or multiple increased serum K+ 5.2-5.5 mMol/L during treatment (Serum potassium; 100 mg QD, Part 2): 1 | Number of individuals with verified or multiple increased serum K+ 5.6-6.0 mMol/L during treatment (Serum potassium; 100 mg QD, Part 2): 0 | Number of individuals with verified or multiple increased serum K+ 6.1-6.5 mMol/L during treatment (Serum potassium; 100 mg QD, Part 2): 0 | Number of individuals with verified or multiple increased serum K+ >6.5 mMol/L during treatment (Serum potassium; 100 mg QD, Part 2): 0 | Percent of individuals with increased serum K+ 5.2-5.5 mMol/L (Serum potassium; 100 mg QD, Part 2): (4%) | Number of individuals with verified or multiple increased serum K+ 5.2-5.5 mMol/L during treatment (Serum potassium; 100 mg QD, Pooled): 6 | Number of individuals with verified or multiple increased serum K+ 5.6-6.0 mMol/L during treatment (Serum potassium; 100 mg QD, Pooled): 3 | Number of individuals with verified or multiple increased serum K+ 6.1-6.5 mMol/L during treatment (Serum potassium; 100 mg QD, Pooled): 0 | Number of individuals with verified or multiple increased serum K+ >6.5 mMol/L during treatment (Serum potassium; 100 mg QD, Pooled): 0 | Percent of individuals with increased serum K+ 5.2-5.5 mMol/L (Serum potassium; 100 mg QD, Pooled): (10.3%) | Percent of individuals with increased serum K+ 5.6-6.0 mMol/L (Serum potassium; 100 mg QD, Pooled): (5.2%) | Change in group mean serum potassium (K+), Mean (Serum potassium; Part 1, N 26*): +0.50 mMol/L | Change in group mean serum potassium (K+) (Serum potassium; Part 1, N 26* (dose not given in Table 5)): +0.50 mMol/L | Change in group mean serum potassium (K+), Mean (Serum potassium; Part 2, N 31): +0.23 mMol/L | Change in group mean serum potassium (K+) (Serum potassium; Part 2, N 31 (dose not given in Table 5)): +0.23 mMol/L | Change in group mean serum potassium (K+), Mean (Serum potassium; Pooled, N 57): +0.35 mMol/L | Change in group mean serum potassium (K+) (Serum potassium; Pooled, N 57 (dose not given in Table 5)): +0.35 mMol/L | Serum potassium levels (Serum potassium; active treatment cohorts compared with placebo, Parts 1 and 2): increased | Episodes of severe hyperkalemia (Serum potassium; pooled (Part 1 and Part 2) 100 mg QD safety set (n=60)): no episodes of severe hyperkalemia | Subjects with transient elevated serum potassium greater than 6.0 mmol/L (Serum potassium; whole study, none an SAE, all resolved after discontinuation or dose adjustment, listed as lorundrostat): seven | ACTH-stimulation results (ACTH stimulation testing): no individuals with abnormal ACTH-stimulation results | Aldosterone, mean observed (serum aldosterone; Part 1, 12.5 mg BID): 6.636 ng/dL | Aldosterone, mean observed (serum aldosterone; Part 1, 12.5 mg QD): 7.065 ng/dL | Aldosterone, mean observed (serum aldosterone; Part 1, 25 mg BID): 6.558 ng/dL | Aldosterone, mean observed (serum aldosterone; Part 1, 50 mg QD): 6.205 ng/dL | Aldosterone, mean observed (serum aldosterone; Part 1, 100 mg QD): 6.533 ng/dL | Aldosterone levels relative to baseline (serum aldosterone; Week 4): −40.1% to 7.4% | Aldosterone levels relative to baseline (serum aldosterone; Week 12): −26.6% to 15.9% | Aldosterone, mean observed (serum aldosterone; Part 2, 100 mg QD): 6.435 ng/dL | Serum aldosterone levels (serum aldosterone; pharmacodynamic response across doses): dose-dependent reduction
